≈ marks a conversion by molar mass, not a printed value. Counter-ions that a name gives are not always drawn. Like-named read-outs stand apart in the source and are kept apart here.
Legend:
Format in all cases: cell-based
[1] = tested on: Enterococcus faecalis ATCC 29212; assay: Broth microdilution MIC, E. faecalis ATCC 29212; settings: read-out: MIC E. faecalis ATCC 29212
How it was run: (§1)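 Broth microdilution in strain-specific test medium with ~5.0×10^5 cfu/ml inoculum, 1% DMSO and two-fold compound dilutions from 64 to 0.0625 μg/ml. Plates were held 20 hours at 37° C in ambient air. S. pneumoniae colonies were grown beforehand on blood agar in 5% CO2.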

[2] = tested on: Bacillus subtilis ATCC 6633; assay: Broth microdilution MIC, B. subtilis ATCC 6633; settings: read-out: MIC B. subtilis ATCC 6633
How it was run: as §1

[3] = tested on: Enterococcus faecium ATCC 700221 (VRE); assay: Broth microdilution MIC, E. faecium ATCC 700221 (VRE); settings: Enterococcus faecium
How it was run: as §1

[4] = tested on: Staphylococcus aureus ATCC 29213 (MSSA); assay: Broth microdilution MIC, S. aureus ATCC 29213 (MSSA); settings: read-out: MIC S. aureus ATCC 29213 (MSSA)
How it was run: as §1

[5] = tested on: Staphylococcus aureus NRS384 (MRSA); assay: Broth microdilution MIC, S. aureus NRS384 (MRSA); settings: Staphylococcus aureus
How it was run: as §1

[6] = tested on: Streptococcus pneumoniae ATCC 49619; assay: Broth microdilution MIC, S. pneumoniae ATCC 49619; settings: read-out: MIC S. pneumoniae ATCC 49619
How it was run: as §1

[7] = tested on: Escherichia coli ATCC 25922; assay: Broth microdilution MIC, E. coli ATCC 25922 (MHIIB w & w/o 4 mM EDTA); settings: for MIC: Escherichia coli, read-out: MIC E. coli ATCC 25922; for MIC E. coli ATCC 25922 + 4 mM EDTA: with 4 mM EDTA
How it was run: as §1

[8] = ATCC29212, broth microdilution, 37° C., 20 hours
[9] = ATCC6633, broth microdilution, 37° C., 20 hours
[10] = broth microdilution, 37° C., 20 hours, read-out: MIC E. faecium ATCC 700221 (VRE)
[11] = broth microdilution, MHIIB, 37° C., 20 hours, read-out: MIC against E. faecium ATCC 700221 (VRE)
[12] = broth microdilution, 37° C., 20 hours
[13] = broth microdilution, MHIIB, 37° C., 20 hours, read-out: MIC against S. aureus NRS 384 (MRSA)
[14] = ATCC49619, broth microdilution, 37° C., 20 hours
[15] = ATCC25922, without EDTA, broth microdilution, 37° C., 20 hours
[16] = broth microdilution, 37° C., 20 hours, read-out: MIC NRS 384 (MRSA)

Row | MIC [1, 8] | MIC [2, 9] | MIC [3, 10] | MIC [3, 11] | MIC [4, 12] | MIC ([5]; S. aureus NRS 384, broth microdilution, 37° C., 20 hours, read-out: MIC NRS 384 (MRSA)) | MIC [5, 13] | MIC [6, 14] | MIC [7, 15] | MIC E. coli ATCC 25922 + 4 mM EDTA [7, 12] | MIC [5, 16] | SMILES | MIC ([1]; ATCC29212, 20 h) | MIC ([2]; ATCC6633, 20 h) | MIC ([3]; 20 h, read-out: MIC E. faecium ATCC 700221 (VRE)) | MIC ([4]; 20 h) | MIC ([5]; 20 h, read-out: MIC NRS 384 (MRSA)) | MIC ([6]; ATCC49619, 20 h) | MIC ([7]; ATCC25922, 20 h)
1 | 2 µg/mL (≈ 4.97 µM) | 0.5 µg/mL (≈ 1.24 µM) | 0.5 µg/mL (≈ 1.24 µM) | ≤ 1 µg/mL | 1 µg/mL (≈ 2.48 µM) | 1 µg/mL (≈ 2.48 µM) | ≤ 1 µg/mL | 2 µg/mL (≈ 4.97 µM) | > 64 µg/mL | >64 µg/mL |  | COCCn1nc(Cl)c2nc(NCc3ccc(Cl)c(Cl)c3)[nH]c(=O)c21 [Compound 304, 3-Chloro-5-((3,4-dichlorobenzyl)amino)-1-(2-methoxyethyl)-1H-pyrazolo[4,3-d]pyrimidin-7(6H)-one] |  |  |  |  |  |  | 
2 | 32 µg/mL (≈ 92.1 µM) | 32 µg/mL (≈ 92.1 µM) | 32 µg/mL (≈ 92.1 µM) |  | 32 µg/mL (≈ 92.1 µM) |  |  | 8 µg/mL (≈ 23 µM) | > 64 µg/mL | >64 µg/mL | 32 µg/mL (≈ 92.1 µM) | O=c1[nH]c(NCc2ccc(F)c(F)c2)nc2cnn(CC3CCO3)c12 (stereo not drawn) [Compound 125, 5-((3,4-Difluorobenzyl)amino)-1-(oxetan-2-ylmethyl)-1H-pyrazolo[4,3-d]pyrimidin-7(6H)-one] |  |  |  |  |  |  | 
3 | 8 µg/mL (≈ 21.7 µM) | 2 µg/mL (≈ 5.43 µM) | 2 µg/mL (≈ 5.43 µM) |  | 4 µg/mL (≈ 10.9 µM) |  |  | 8 µg/mL (≈ 21.7 µM) | > 64 µg/mL | >64 µg/mL | 4 µg/mL (≈ 10.9 µM) | C[C@@H](O)Cn1ncc2nc(NCc3ccc(Cl)c(Cl)c3)[nH]c(=O)c21 [Compound 239, (R)-5-((3,4-dichlorobenzyl)amino)-1-(2-hydroxypropyl)-1H-pyrazolo[4,3-d]pyrimidin-7(6H)-one] |  |  |  |  |  |  | 
4 | 16 µg/mL (≈ 31.4 µM) | 2 µg/mL (≈ 3.93 µM) | 4 µg/mL (≈ 7.85 µM) |  | 8 µg/mL (≈ 15.7 µM) |  |  | 16 µg/mL (≈ 31.4 µM) | > 64 µg/mL | >64 µg/mL | 4 µg/mL (≈ 7.85 µM) | CC(C)(C)OC(=O)N1CCOC(Cn2ncc3nc(NCc4ccc(Cl)c(Cl)c4)[nH]c(=O)c32)C1 (stereo not drawn) [Compound 148, tert-butyl 2-((5-((3,4-dichlorobenzyl)amino)-7-oxo-6,7-dihydro-1H-pyrazolo[4,3-d]pyrimidin-1-yl)methyl)morpholine-4-carboxylate] |  |  |  |  |  |  | 
5 | > 64 µg/mL | > 64 µg/mL | > 64 µg/mL |  | > 64 µg/mL |  |  | > 64 µg/mL | > 64 µg/mL | >64 µg/mL | > 64 µg/mL | O=c1[nH]c(NCc2ccc(Cl)c(Cl)c2)nc2cnn(-c3ncccn3)c12 [Compound 139, 5-((3,4-Dichlorobenzyl)amino)-1-(pyrimidin-2-yl)-1H-pyrazolo[4,3-d]pyrimidin-7(6H)-one] |  |  |  |  |  |  | 
6 | > 64 µg/mL | > 64 µg/mL | 32 µg/mL (≈ 76.1 µM) |  | > 64 µg/mL |  |  | 64 µg/mL (≈ 152 µM) | > 64 µg/mL | >64 µg/mL | > 64 µg/mL | O=c1[nH]c(NCc2ccc(Cl)c(Cl)c2)nc2cnn(CCCc3nnn[nH]3)c12 [Compound 221, 1-(3-(1H-tetrazol-5-yl)propyl)-5-((3,4-dichlorobenzyl)amino)-1H-pyrazolo[4,3-d]pyrimidin-7(6H)-one] |  |  |  |  |  |  | 
7 | 64 µg/mL (≈ 221 µM) | 16 µg/mL (≈ 55.2 µM) | 32 µg/mL (≈ 110 µM) |  | 32 µg/mL (≈ 110 µM) |  |  | 16 µg/mL (≈ 55.2 µM) | > 64 µg/mL | 64 µg/mL | 32 µg/mL (≈ 110 µM) | Cn1ncc2nc(NCc3cccc(Cl)c3)[nH]c(=O)c21 [Compound 26, 5-((3-Chlorobenzyl)amino)-1-methyl-1H-pyrazolo[4,3-d]pyrimidin-7(6H)-one] |  |  |  |  |  |  | 
8 | > 64 µg/mL | > 64 µg/mL | > 64 µg/mL |  | > 64 µg/mL |  |  | > 64 µg/mL | > 64 µg/mL | >64 µg/mL | > 64 µg/mL | Cn1ncc2nc(Nc3ccc4c(c3)COC4)[nH]c(=O)c21 [Compound 39, 5-((1,3-Dihydroisobenzofuran-5-yl)amino)-1-methyl-1H-pyrazolo[4,3-d]pyrimidin-7(6H)-one] |  |  |  |  |  |  | 
9 | 16 µg/mL (≈ 33.6 µM) | 16 µg/mL (≈ 33.6 µM) | 8 µg/mL (≈ 16.8 µM) |  | 16 µg/mL (≈ 33.6 µM) |  |  | 8 µg/mL (≈ 16.8 µM) | > 64 µg/mL | >64 µg/mL | 32 µg/mL (≈ 67.2 µM) | Cc1noc(C)c1C(=O)NCCn1ncc2nc(NCc3ccc(Cl)c(Cl)c3)[nH]c(=O)c21 [Compound 79, N-(2-(5-((3,4-dichlorobenzyl)amino)-7-oxo-6,7-dihydro-1H-pyrazolo[4,3-d]pyrimidin-1-yl)ethyl)-3,5-dimethylisoxazole-4-carboxamide] |  |  |  |  |  |  | 
10 | 4 µg/mL (≈ 10.3 µM) | 1 µg/mL (≈ 2.58 µM) | 2 µg/mL (≈ 5.16 µM) | ≤ 1 µg/mL | 2 µg/mL (≈ 5.16 µM) |  | ≤ 1 µg/mL | 2 µg/mL (≈ 5.16 µM) | > 64 µg/mL | 64 µg/mL | 1 µg/mL (≈ 2.58 µM) | O=c1[nH]c(NCc2ccc(Cl)c(Cl)c2)nc2cnn(-c3ccncc3)c12 [Compound 222, 5-[(3,4-dichlorophenyl)methylamino]-1-(4-pyridyl)-6H-pyrazolo[4,3-d]pyrimidin-7-one] |  |  |  |  |  |  | 
11 | 32 µg/mL (≈ 70.9 µM) | 16 µg/mL (≈ 35.5 µM) | 16 µg/mL (≈ 35.5 µM) |  | 64 µg/mL (≈ 142 µM) |  |  | 4 µg/mL (≈ 8.86 µM) | > 64 µg/mL | >64 µg/mL | 64 µg/mL (≈ 142 µM) | O=C1CC(Cn2ncc3nc(NCc4ccc(Cl)c(Cl)c4)[nH]c(=O)c32)CN1CCO (stereo not drawn) [Compound 177, 5-((3,4-dichlorobenzyl)amino)-1-((1-(2-hydroxyethyl)-5-oxopyrrolidin-3-yl)methyl)-1H-pyrazolo[4,3-d]pyrimidin-7(6H)-one] |  |  |  |  |  |  | 
12 | > 64 µg/mL | > 64 µg/mL | > 64 µg/mL |  | > 64 µg/mL |  |  | > 64 µg/mL | > 64 µg/mL | >64 µg/mL | > 64 µg/mL | Cn1ncc2nc(NCc3cccnc3)[nH]c(=O)c21 [Compound 5, 1-Methyl-5-(3-pyridylmethylamino)-6H-pyrazolo[4,3-d]pyrimidin-7-one] |  |  |  |  |  |  | 
13 | 64 µg/mL (≈ 145 µM) | 32 µg/mL (≈ 72.4 µM) | 32 µg/mL (≈ 72.4 µM) |  | > 64 µg/mL |  |  | 32 µg/mL (≈ 72.4 µM) | > 64 µg/mL | >64 µg/mL | > 64 µg/mL | CP(C)(=O)CCCCn1ncc2nc(NCc3ccc(Cl)c(Cl)c3)[nH]c(=O)c21 [Compound 146, 5-((3,4-Dichlorobenzyl)amino)-1-(4-(dimethylphosphoryl)butyl)-1H-pyrazolo[4,3-d]pyrimidin-7(6H)-one] |  |  |  |  |  |  | 
14 | 8 µg/mL (≈ 19.5 µM) | 4 µg/mL (≈ 9.77 µM) | 8 µg/mL (≈ 19.5 µM) |  | 16 µg/mL (≈ 39.1 µM) |  |  | 4 µg/mL (≈ 9.77 µM) | > 64 µg/mL | 32 µg/mL | 16 µg/mL (≈ 39.1 µM) | CC(C)(C)NCCn1ncc2nc(NCc3ccc(Cl)c(Cl)c3)[nH]c(=O)c21 [Compound 62, 1-[2-(tert-Butylamino)ethyl]-5-[(3,4-dichlorophenyl)methylamino]-6H-pyrazolo[4,3-d]pyrimidin-7-one] |  |  |  |  |  |  | 

Row | SMILES | MIC [1, 8] | MIC [2, 9] | MIC [3, 10] | MIC [3, 11] | MIC [4, 12] | MIC ([5]; S. aureus NRS 384, broth microdilution, 37° C., 20 hours, read-out: MIC NRS 384 (MRSA)) | MIC [5, 13] | MIC [6, 14] | MIC [7, 15] | MIC E. coli ATCC 25922 + 4 mM EDTA [7, 12] | MIC [5, 16] | MIC ([1]; ATCC29212, 20 h) | MIC ([2]; ATCC6633, 20 h) | MIC ([3]; 20 h, read-out: MIC E. faecium ATCC 700221 (VRE)) | MIC ([4]; 20 h) | MIC ([5]; 20 h, read-out: MIC NRS 384 (MRSA)) | MIC ([6]; ATCC49619, 20 h) | MIC ([7]; ATCC25922, 20 h)
15 | CCCCOCCOCCOCCn1ncc2nc(NCc3ccc(Cl)c(Cl)c3)[nH]c(=O)c21 [Compound 95, 1-(2-(2-(2-Butoxyethoxy)ethoxy)ethyl)-5-((3,4-dichlorobenzyl)amino)-1H-pyrazolo[4,3-d]pyrimidin-7(6H)-one] | 16 µg/mL (≈ 32.1 µM) | 2 µg/mL (≈ 4.01 µM) | 4 µg/mL (≈ 8.03 µM) |  | 4 µg/mL (≈ 8.03 µM) |  |  | 8 µg/mL (≈ 16.1 µM) | > 64 µg/mL | >64 µg/mL | 4 µg/mL (≈ 8.03 µM) |  |  |  |  |  |  | 
16 | O=c1[nH]c(NCc2ccc(Cl)c(Cl)c2)nc2cn(C3CCNC3)nc12 (stereo not drawn) [Compound 215, 5-((3,4-Dichlorobenzyl)amino)-2-(pyrrolidin-3-yl)-2H-pyrazolo[4,3-d]pyrimidin-7(6H)-one TFA salt] |  |  |  |  |  |  |  |  |  | 64 µg/mL |  | > 64 µg/mL | 64 µg/mL | > 64 µg/mL | > 64 µg/mL | > 64 µg/mL | 16 µg/mL | > 64 µg/mL

Reference: patent US10723741B1, “DNA polymerase IIIC inhibitors and use thereof” (Acurx Pharmaceuticals, LLC, priority 2018, dated 2020)
